Test results from US7915297B2, “Isoxazole derivatives and use thereof” (SK Holdings Co., Ltd., priority 2005, dated 2011).

Tests used:
[1] = system: Wnt/β-catenin signaling (β-catenin activity) in HEK293 cell line; test: Cell-based Wnt agonist screening, TCF luciferase reporter, HEK293 (TCF-FL); parameters: species or system human; conditions: Homo sapiens, HEK293, 24 h, % of LiCl (20 mM), 24 h, read-out: Max. Activity (%); for Emax at 30 µM: Conc. 30 μM; for Emax at 120 µM: Conc. 120 μM
Description: (§1) In order to measure the in vitro activity of compounds of the present invention, two human cancer cell lines, HEK293 and SW480, which have intact Wnt signaling and show APC gene mutation in the Wnt signaling pathway, respectively, were used.
(§2) For evaluating the activity of wnt/β-catenin signaling in the cancer cell lines, gene as illustrated in FIG. 1 having β-catenin-binding sites of the Tcf/Lef transcriptional control protein (5 sites of TCF, 5X TCF) and having a fire fly luficerase as a marker protein ascertainable the activity of 5X TCF was introduced into the cells. Treatment with G418 led monoclones of the cell lines, in which the genes were permanently expressed, so as to construct a cell-based Wnt agonist screening system. […] For comparison with the activity of the isoxazole derivatives as Wnt agonists, lithium chloride (LiCl), acting as a positive control for the cell-based Wnt agonist screening system, was used to determine the expression level of the luciferase, and the results are shown in FIG. 3.
(§3) The cell lines, in which a cell-based Wnt agonist screening system was constructed, were cultured in RPMI 1640 media supplemented with penicillin-streptomycin (100 Units/mL) and heat-inactivated 5% fetal bovine serum under standard culture conditions (5% CO2, 37° C., 100% relative humidity). […] The suspension was diluted with the same medium to adjust the cell count to 8,000˜15,000 cells per well and was moved then in a 96-well microtiter plate. After being incubated for 24 hrs, the cells were treated with various concentrations of the isoxazole derivatives synthesized in Preparation Examples. Incubation for an additional 24 hours was followed by the quantitative analysis of luciferase activity using a Luciferase Assay kit (Promega, U.S.A.) according to the protocol described in the manual provided by the manufacturer. Data on the activities of the isoxazole derivatives thus synthesized are given in Tables 34 to 43, and are expressed as percentages relative to the activity of the positive control LiCl (20 mM), a well-known agonist of Wnt signaling.

[2] = system: Wnt/β-catenin signaling (β-catenin activity) in SW480 cell line; test: Cell-based Wnt agonist screening, TCF luciferase reporter, SW480 (TCF-FL); parameters: species or system human; conditions: Homo sapiens, % of LiCl (20 mM), 24 h, read-out: Max. Activity (%); for Emax at 30 µM: Con. 30 μM; for Emax at 120 µM: Con. 120 μM
Description: as §1, §2, §3

Cc1c(C(=O)NCCCn2ccnc2)noc1-c1ccco1 [Derivative (65), 5-furan-2-yl-4-methyl-isoxazole-3-carboxylic acid (3-imidazol-1-yl-propyl)-amide]
Emax at 30 µM [1]: < 20% | Emax at 30 µM [2]: < 20%

O=C(Nc1ccccc1O)c1cc(-c2ccco2)on1 [Derivative (2), 5-furan-2-yl-isoxazole-3-carboxylic acid (2-hydroxy-phenyl)-amide]
Emax at 30 µM [1]: < 20% | Emax at 30 µM [2]: < 20%

O=C(NCCCn1ccnc1)c1cc(-c2cccc(O)c2)on1 [Derivative (106), 5-(3-hydroxy-phenyl)-isoxazole-3-carboxylic acid (3-imidazol-1-yl-propyl)-amide]
Emax at 7.5 µM ([1]; Conc. 7.5 μM): 29% | Emax at 30 µM [1]: 277% | Emax at 30 µM [2]: 277%

O=C(NCCCn1ncnn1)c1cc(-c2ccco2)on1 [Derivative (53), 5-furan-2-yl-isoxazole-3-carboxylic acid (3-tetrazol-2-yl-propyl)-amide]
Emax at 30 µM [1]: < 20% | Emax at 30 µM [2]: < 20%

COc1cccc(-c2cc(C(=O)NCCCn3ccnc3)no2)c1 [Derivative (100), 5-(3-methoxy-phenyl)-isoxazole-3-carboxylic acid (3-imidazol-1-yl-propyl)-amide]
Emax at 120 µM [1]: 59% | Emax at 120 µM [2]: 59%

O=C(NCCCn1ccnc1)c1cc(-c2ccccc2[N+](=O)[O-])on1 [Derivative (112), 5-(2-nitro-phenyl)-isoxazole-3-carboxylic acid (3-imidazol-1-yl-propyl)-amide]
Emax at 120 µM [1]: 51% | Emax at 120 µM [2]: 51%

O=C(NCCn1cncn1)c1cc(-c2ccc(F)cc2)on1 [Derivative (88), 5-(4-fluoro-phenyl)-isoxazole-3-carboxylic acid (2-[1,2,4]triazol-1-yl-ethyl)-amide]
Emax at 120 µM [1]: 600% | Emax at 120 µM [2]: 600%

O=C(NCCCn1ccnc1)c1cc(-c2cccc([N+](=O)[O-])c2)on1 [Derivative (113), 5-(3-nitro-phenyl)-isoxazole-3-carboxylic acid (3-imidazol-1-yl-propyl)-amide]
Emax at 120 µM [1]: 46% | Emax at 120 µM [2]: 46%

O=C(NCCCn1cncn1)c1cc(-c2ccc(F)cc2)on1 [Derivative (84), 5-(4-fluoro-phenyl)-isoxazole-3-carboxylic acid (3-[1,2,4]triazol-1-yl-propyl)-amide]
Emax at 30 µM [1]: 907% | Emax at 30 µM [2]: 907%

O=C(NCCc1ccc([N+](=O)[O-])cc1)c1cc(-c2ccco2)on1 [Derivative (27), 5-furan-2-yl-isoxazole-3-carboxylic acid [2-(4-nitro-phenyl)-ethyl]-amide]
Emax at 30 µM [1]: < 20% | Emax at 30 µM [2]: < 20%

O=C(NCc1cccnc1)c1cc(-c2ccco2)on1 [Derivative (8), 5-furan-2-yl-isoxazole-3-carboxylic acid (pyridin-3-ylmethyl)-amide]
Emax at 30 µM [1]: < 20% | Emax at 30 µM [2]: < 20%

O=C(NCCc1ccc(Br)cc1)c1cc(-c2ccco2)on1 [Derivative (25), 5-furan-2-yl-isoxazole-3-carboxylic acid [2-(4-bromo-phenyl)-ethyl]-amide]
Emax at 30 µM [1]: < 20% | Emax at 120 µM [2]: 223%

O=C(NCCCn1ccnc1)c1cc(-c2cccnc2)on1 [Derivative (76), 5-pyridin-3-yl-isoxazole-3-carboxylic acid (3-imidazol-1-yl-propyl)-amide]
Emax at 30 µM [1]: < 20% | Emax at 30 µM [2]: < 20%

O=C(NCCCn1ccnc1)c1cc(-c2ccccn2)on1 [Derivative (75), 5-pyridin-2-yl-isoxazole-3-carboxylic acid (3-imidazol-1-yl-propyl)-amide]
Emax at 30 µM [1]: < 20% | Emax at 30 µM [2]: < 20%

O=C(NCCCn1ccnc1)c1noc(-c2ccco2)c1Cc1ccccc1 [Derivative (67), 4-benzyl-5-furan-2-yl-isoxazole-3-carboxylic acid (3-imidazol-1-yl-propyl)-amide]
Emax at 30 µM [1]: < 20% | Emax at 30 µM [2]: < 20%
